# Laboratory results as given in ChEMBL document CHEMBL1649263, “In vitro activity of a new quinoline derivative, ER-2, against clinical isolates of Mycoplasma pneumoniae and Mycoplasma hominis” (2009).
# Tests used:
# [1] = system: Metamycoplasma hominis; test: Antimicrobial activity against Mycoplasma hominis by agar dilution method; assay type: functional
# [2] = system: Mycoplasmoides pneumoniae; test: Antimicrobial activity against Mycoplasma pneumoniae by agar dilution method; assay type: functional
MIC50 [1] [µg/mL],MIC90 [1] [µg/mL],MIC50 [2] [µg/mL],MIC90 [2] [µg/mL],Compound,MIC [2] [ng/mL],MIC [1] [µg/mL]
0.032,0.032,–,–,CCC[C@@H]1C[C@@H](C(=O)N[C@@H]([C@H]2O[C@H](SC)[C@H](O)[C@@H](O)[C@H]2O)[C@H](C)Cl)N(C)C1 [CLINDAMYCIN],–,–
2,2,0.25,0.25,C[C@H]1c2cccc(O)c2C(=O)C2=C(O)[C@]3(O)C(=O)C(C(N)=O)=C(O)[C@@H](N(C)C)[C@@H]3[C@@H](O)[C@@H]21.O [DOXYCYCLINE],–,–
0.125,0.125,0.125,0.125,COc1c(N2CCNC(C)C2)c(F)cc2c(=O)c(C(=O)O)cn(C3CC3)c12 (stereo not given) [GATIFLOXACIN],–,–
–,–,0.032,0.125,CO/N=C1\CN(c2nc3c(cc2F)c(=O)c(C(=O)O)cn3C2CC2)CC1CN (stereo not given) [GEMIFLOXACIN],–,–

# The next lines start with the molecule.
Compound,MIC50 [1] [µg/mL],MIC90 [1] [µg/mL],MIC50 [2] [µg/mL],MIC90 [2] [µg/mL],MIC [2] [ng/mL],MIC [1] [µg/mL]
CN1C(=O)C2CC3C4Nc5ccc(Cl)cc5C(C)(C)C4CN3C2N(C)C1=O (stereo not given),0.032,0.06,0.001,0.016,1,–
CC[C@H]1OC(=O)[C@H](C)[C@@H](O[C@H]2C[C@@](C)(OC)[C@@H](O)[C@H](C)O2)[C@H](C)[C@@H](O[C@@H]2O[C@H](C)C[C@H](N(C)C)[C@H]2O)[C@](C)(O)C[C@@H](C)CN(C)[C@H](C)[C@@H](O)[C@]1(C)O [AZITHROMYCIN],–,–,0.001,0.016,1,–
O=C(O)c1cn(C2CC2)c2cc(N3CCNCC3)c(F)cc2c1=O [CIPROFLOXACIN],1,1,4,4,–,–
C[C@H]1COc2c(N3CCN(C)CC3)c(F)cc3c(=O)c(C(=O)O)cn1c23.C[C@H]1COc2c(N3CCN(C)CC3)c(F)cc3c(=O)c(C(=O)O)cn1c23.O [LEVOFLOXACIN],0.25,0.5,1,1,12,0.1
COc1c(N2C[C@@H]3CCCN[C@@H]3C2)c(F)cc2c(=O)c(C(=O)O)cn(C3CC3)c12 [MOXIFLOXACIN],0.06,0.06,0.06,0.12,60,0.063
CN(C)[C@@H]1C(O)=C(C(N)=O)C(=O)[C@@]2(O)C(O)=C3C(=O)c4c(O)cccc4[C@@](C)(O)[C@H]3C[C@@H]12 [TETRACYCLINE],8,8,1,1,–,–
